Source: ChEMBL document CHEMBL2157968, “Novel multipotent phenylthiazole-tacrine hybrids for the inhibition of cholinesterase activity, β-amyloid aggregation and Ca²⁺ overload” (Bioorg Med Chem, 2012)
Calls of active or inactive are those of the source. The rule behind the calls is not given here.

Tests used:
[1] = target: Acetylcholinesterase (Electrophorus electricus) (UniProt O42275); assay: Mixed type inhibition of electric eel AChE using acetylthiocholine chloride substrate incubated for 5 mins before substrate addition measured at 3 min interval by Lineweaver-Burk plot analysis
Chain of Acetylcholinesterase (Electrophorus electricus) (O42275 24-633 limits assumed): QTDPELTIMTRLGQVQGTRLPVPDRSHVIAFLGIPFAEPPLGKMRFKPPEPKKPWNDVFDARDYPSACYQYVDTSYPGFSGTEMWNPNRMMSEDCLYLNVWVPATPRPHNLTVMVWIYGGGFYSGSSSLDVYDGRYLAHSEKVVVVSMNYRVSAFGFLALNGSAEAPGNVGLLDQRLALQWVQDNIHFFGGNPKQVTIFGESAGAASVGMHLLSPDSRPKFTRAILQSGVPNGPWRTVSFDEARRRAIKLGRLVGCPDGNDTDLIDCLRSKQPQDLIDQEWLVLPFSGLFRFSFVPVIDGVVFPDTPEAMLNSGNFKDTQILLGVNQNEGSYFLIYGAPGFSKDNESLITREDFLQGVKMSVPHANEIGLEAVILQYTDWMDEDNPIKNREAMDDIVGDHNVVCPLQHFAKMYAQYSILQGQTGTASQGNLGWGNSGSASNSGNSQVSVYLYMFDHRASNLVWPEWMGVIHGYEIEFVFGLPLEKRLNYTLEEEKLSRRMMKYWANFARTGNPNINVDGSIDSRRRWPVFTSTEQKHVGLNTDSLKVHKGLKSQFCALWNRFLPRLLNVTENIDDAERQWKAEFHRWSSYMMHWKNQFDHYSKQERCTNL

[2] = target: Acetylcholinesterase (Electrophorus electricus, UniProt O42275)
Chain of Acetylcholinesterase (O42275 whole entry): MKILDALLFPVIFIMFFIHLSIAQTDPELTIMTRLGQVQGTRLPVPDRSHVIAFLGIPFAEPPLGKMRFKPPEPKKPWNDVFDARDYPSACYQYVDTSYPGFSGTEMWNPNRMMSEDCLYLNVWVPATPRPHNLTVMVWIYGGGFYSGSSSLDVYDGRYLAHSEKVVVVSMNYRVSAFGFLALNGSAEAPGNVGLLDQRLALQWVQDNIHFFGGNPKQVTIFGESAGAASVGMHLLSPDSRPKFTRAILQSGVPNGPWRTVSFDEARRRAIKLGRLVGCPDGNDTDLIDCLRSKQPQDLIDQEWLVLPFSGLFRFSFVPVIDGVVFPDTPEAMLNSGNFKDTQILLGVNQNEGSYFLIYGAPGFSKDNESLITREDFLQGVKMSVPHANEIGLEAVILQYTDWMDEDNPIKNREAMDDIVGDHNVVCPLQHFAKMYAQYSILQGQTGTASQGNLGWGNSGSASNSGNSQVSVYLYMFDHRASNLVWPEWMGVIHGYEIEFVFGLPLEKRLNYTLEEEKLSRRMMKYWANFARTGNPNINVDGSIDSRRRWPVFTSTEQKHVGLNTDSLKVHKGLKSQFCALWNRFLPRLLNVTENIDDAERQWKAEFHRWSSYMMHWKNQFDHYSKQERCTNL
Description: Inhibition of electric eel AChE using acetylthiocholine chloride substrate incubated for 5 mins before substrate addition measured at 3 min interval by Ellman method

[3] = target: Cholinesterase (Equus caballus, UniProt P81908)
Chain of Cholinesterase (P81908 whole entry): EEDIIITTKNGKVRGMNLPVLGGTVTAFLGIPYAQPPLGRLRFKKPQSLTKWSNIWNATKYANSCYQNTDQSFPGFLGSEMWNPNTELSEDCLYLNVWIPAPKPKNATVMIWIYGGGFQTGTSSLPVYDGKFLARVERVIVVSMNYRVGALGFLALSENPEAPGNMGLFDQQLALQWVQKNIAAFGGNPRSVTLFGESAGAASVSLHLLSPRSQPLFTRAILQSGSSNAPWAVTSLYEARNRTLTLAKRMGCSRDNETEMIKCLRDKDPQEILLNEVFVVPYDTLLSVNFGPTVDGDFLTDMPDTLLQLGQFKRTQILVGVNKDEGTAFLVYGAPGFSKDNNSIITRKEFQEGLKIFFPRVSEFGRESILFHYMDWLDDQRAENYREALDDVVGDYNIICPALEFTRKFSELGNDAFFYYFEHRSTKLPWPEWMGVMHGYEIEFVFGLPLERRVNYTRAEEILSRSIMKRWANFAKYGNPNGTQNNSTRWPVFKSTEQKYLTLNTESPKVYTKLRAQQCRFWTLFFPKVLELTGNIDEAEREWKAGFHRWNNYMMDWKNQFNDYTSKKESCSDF
Description: Inhibition of equine serum BuChE using butyrylthiocholine chloride substrate incubated for 5 mins before substrate addition measured at 3 min interval by Ellman method

[4] = system: Cerebral cortex neuron; assay: Inhibition of KCl-induced Ca2+ overload in Sprague-Dawley rat primary cortical neurons assessed as reduction in F340/F380 fluorescence ratio at 1 uM by Fura-2/AM-based fluorescence assay; format: functional, cell-based

With `O=C(CCC(=O)Nc1nc(-c2ccccc2)cs1)NCCCCCCNc1c2c(nc3ccccc13)CCCC2` as the compound, how does the inhibition [1] read?
The inhibition was “Active”.

What about the IC50 [2] of the same compound?
Its IC50 is 72.4 nM.

And the IC50 [3]?
The IC50 was 0.355 nM.

Which results are given for `CCN(CCCCNc1c2c(nc3ccccc13)CCCC2)CC(=O)Nc1nc(-c2ccc(Cl)cc2)cs1`?
IC50 [2]: 1620 nM; IC50 [3]: 77.6 nM

How did the IC50 [2] turn out when `CCN(CCCNc1c2c(nc3ccccc13)CCCC2)CC(=O)Nc1nc(-c2ccccc2)cs1` was run?
The IC50 was 105 nM.

And the IC50 [3]?
The IC50 was 0.0447 nM.

With `O=C(CCC(=O)Nc1nc(-c2ccc(Cl)cc2)cs1)NCCCCNc1c2c(nc3ccccc13)CCCC2` as the compound, how does the IC50 [2] read?
The IC50 was 1350 nM.

What about the IC50 [3] of the same compound?
Its IC50 is 16.6 nM.

How did the IC50 [2] turn out when `O=C(CCC(=O)Nc1nc2c(s1)CCCC2)NCCCCNc1c2c(nc3ccccc13)CCCC2` was run?
Its IC50 is 1260 nM.

What about the IC50 [3] of the same compound?
Its IC50 is 363 nM.

For `CCN(CCCCNc1c2c(nc3ccccc13)CCCC2)CCC(=O)Nc1nc(-c2ccc(OC)cc2)cs1`, which IC50 [2] is on record?
Its IC50 is 288 nM.

What about the IC50 [3] of the same compound?
Its IC50 is 6.61 nM.

For `O=C(CCC(=O)Nc1nc(-c2ccccc2)cs1)NCCCCNc1c2c(nc3ccccc13)CCCC2`, which IC50 [2] is on record?
The IC50 was 490 nM.

What about the IC50 [3] of the same compound?
The IC50 was 0.603 nM.

Which results are given for `CCN(CCCNc1c2c(nc3ccccc13)CCCC2)CC(=O)Nc1nc(-c2ccc(OC)cc2)cs1`?
IC50 [2]: 1380 nM; IC50 [3]: 275 nM

For `O=C(CCCC(=O)Nc1nc(-c2ccccc2)cs1)NCCCCNc1c2c(nc3ccccc13)CCCC2`, which IC50 [2] is on record?
Its IC50 is 282 nM.

And the IC50 [3]?
The IC50 was 0.55 nM.

Which IC50 [2] does the source give for `CCN(CCCNc1c2c(nc3ccccc13)CCCC2)CCC(=O)Nc1nc(-c2ccc(OC)cc2)cs1` here?
Its IC50 is 97.7 nM.

What about the IC50 [3] of the same compound?
Its IC50 is 0.479 nM.

How did the IC50 [2] turn out when `CCN(CCCCNc1c2c(nc3ccccc13)CCCC2)CCC(=O)Nc1nc(-c2ccc(Cl)cc2)cs1` was run?
The IC50 was 120 nM.

What about the IC50 [3] of the same compound?
The IC50 was 45.7 nM.

With `CCN(CCCCNc1c2c(nc3ccccc13)CCCC2)CC(=O)Nc1nc(-c2ccc(OC)cc2)cs1` as the compound, how does the IC50 [2] read?
The IC50 was 1660 nM.

What about the IC50 [3] of the same compound?
Its IC50 is 20.4 nM.

How did the IC50 [2] turn out when `CCN(CCCCNc1c2c(nc3ccccc13)CCCC2)CCC(=O)Nc1nc(-c2ccccc2)cs1` was run?
Its IC50 is 110 nM.

And the IC50 [3]?
The IC50 was 18.2 nM.

Which IC50 [2] does the source give for `CCN(CCCCCCNc1c2c(nc3ccccc13)CCCC2)CC(=O)Nc1nc(-c2ccccc2)cs1` here?
Its IC50 is 81.3 nM.

What about the IC50 [3] of the same compound?
The IC50 was 468 nM.

How did the IC50 [2] turn out when `CCN(CCCNc1c2c(nc3ccccc13)CCCC2)CCC(=O)Nc1nc(-c2ccccc2)cs1` was run?
Its IC50 is 324 nM.

What about the IC50 [3] of the same compound?
The IC50 was 6.03 nM.

What does the source list for `CCN(CCCCNc1c2c(nc3ccccc13)CCCC2)CC(=O)Nc1nc(-c2ccccc2)cs1`?
IC50 [2]: 158 nM; IC50 [3]: 14.8 nM

What does the source list for `O=C(CCCC(=O)Nc1nc(-c2ccccc2)cs1)NCCCNc1c2c(nc3ccccc13)CCCC2`?
IC50 [2]: 380 nM; IC50 [3]: 1780 nM

What does the source list for `CCN(CCCCCCNc1c2c(nc3ccccc13)CCCC2)CC(=O)Nc1nc(-c2ccc(OC)cc2)cs1`?
inhibition [4]: inactive; IC50 [2]: 158 nM; IC50 [3]: 589 nM

How did the IC50 [2] turn out when `CCN(CCCNc1c2c(nc3ccccc13)CCCC2)CCC(=O)Nc1nc(-c2ccc(Cl)cc2)cs1` was run?
Its IC50 is 1200 nM.

And the IC50 [3]?
Its IC50 is 4.17 nM.
